In ChEMBL document CHEMBL1201861, “Genomics of Drug Sensitity in Cancer screening data, Wellcome Trust Sanger Institute”:
pIC50: −log10 of the molar value.

Columns and labels:
Experiment in all cases: cells
[1] = tested on: COLO-792; format: functional, cell-based, Homo sapiens; settings: Homo sapiens, COLO-792
Description: SANGER: Inhibition of human COLO-792 cell growth in a cell viability assay.

[2] = tested on: CP50-MEL-B; format: functional, cell-based, Homo sapiens; settings: Homo sapiens, CP50-MEL-B;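 further: growth inhibition of the human cell line, measured with a cell viability read-out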
Description: SANGER: Inhibition of human CP50-MEL-B cell growth in a cell viability assay.

[3] = tested on: CW-2; format: functional, cell-based, Homo sapiens; settings: Homo sapiens, CW-2;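 further: growth inhibition of CW-2 cells, read out by a cell viability assay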
Description: SANGER: Inhibition of human CW-2 cell growth in a cell viability assay.

[4] = tested on: Ca-Ski; format: functional, cell-based; settings: Homo sapiens;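 further: cell viability assay measuring inhibition of Ca-Ski cell growth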
Description: SANGER: Inhibition of human Ca-Ski cell growth in a cell viability assay.

[5] = tested on: Calu-6; format: functional, cell-based, Homo sapiens; settings: Homo sapiens, Calu-6;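 further: growth of human Calu-6 cells, read out by a cell viability assay, IC50 marking inhibition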
Description: SANGER: Inhibition of human Calu-6 cell growth in a cell viability assay.

[6] = tested on: Capan-2; format: functional, cell-based, Homo sapiens; settings: Homo sapiens, Capan-2;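 further: Capan-2 cell growth inhibition, read out with a viability assay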
[7] = tested on: DOHH-2; format: functional, cell-based; settings: Homo sapiens;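 further: growth inhibition of human DOHH-2 cells, read out with a cell viability assay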
Description: SANGER: Inhibition of human DOHH-2 cell growth in a cell viability assay.

[8] = tested on: Detroit 562; format: functional, cell-based, Homo sapiens; settings: Homo sapiens, Detroit 562;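 further: growth inhibition of human Detroit 562 cells, read out by a cell viability assay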
[9] = tested on: EW-24; format: functional, cell-based; settings: Homo sapiens;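 further: human EW-24 cancer cell line, growth inhibition read out via a cell viability assay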
Description: SANGER: Inhibition of human EW-24 cell growth in a cell viability assay.

[10] = tested on: HCC1569; format: functional, cell-based, Homo sapiens; settings: Homo sapiens, HCC1569;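 further: growth inhibition of human HCC1569 cells, read out with a cell viability assay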
Description: SANGER: Inhibition of human HCC1569 cell growth in a cell viability assay.

[11] = tested on: HCC2218; format: functional, cell-based; settings: Homo sapiens;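 further: cell viability assay read-out, with IC50 given as the concentration that inhibits growth of the cell line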
Description: SANGER: Inhibition of human HCC2218 cell growth in a cell viability assay.

[12] = tested on: HCC 2998; format: functional, cell-based, Homo sapiens; settings: Homo sapiens, HCC 2998;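 further: growth inhibition of human HCC2998 cells, measured with a cell viability read-out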
Description: SANGER: Inhibition of human HCC2998 cell growth in a cell viability assay.

[13] = tested on: HD-MY-Z; format: functional, cell-based, Homo sapiens; settings: Homo sapiens, HD-MY-Z;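 further: growth inhibition of HD-MY-Z cells, read out with a cell viability assay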
Description: SANGER: Inhibition of human HD-MY-Z cell growth in a cell viability assay.

[14] = tested on: HO-1-N-1; format: functional, cell-based, Homo sapiens; settings: Homo sapiens, HO-1-N-1;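 further: growth inhibition of human HO-1-N-1 cells, read out with a cell viability assay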
Description: SANGER: Inhibition of human HO-1-N-1 cell growth in a cell viability assay.

[15] = tested on: HOP-62; format: functional, cell-based, Homo sapiens; settings: Homo sapiens, HOP-62;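 further: cell growth inhibition determined with a viability assay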
Description: SANGER: Inhibition of human HOP-62 cell growth in a cell viability assay.

[16] = tested on: HT-1080; format: functional, cell-based, Homo sapiens; settings: Homo sapiens, HT-1080
Description: SANGER: Inhibition of human HT-1080 cell growth in a cell viability assay.

[17] = tested on: IGROV-1; format: functional, cell-based, Homo sapiens; settings: Homo sapiens, IGROV-1;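 further: reduction of IGROV-1 cell growth, read out with a viability assay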
Description: SANGER: Inhibition of human IGROV-1 cell growth in a cell viability assay.

[18] = tested on: IST-SL1; format: functional, cell-based, Homo sapiens; settings: Homo sapiens, IST-SL1;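 further: growth inhibition of human IST-SL1 cells, read out with a cell viability assay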
Description: SANGER: Inhibition of human IST-SL1 cell growth in a cell viability assay.

[19] = tested on: JAR; format: functional, cell-based, Homo sapiens; settings: Homo sapiens, JAR;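 further: growth inhibition of human JAR cells determined with a cell viability assay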
[20] = tested on: KALS-1; format: functional, cell-based, Homo sapiens; settings: Homo sapiens, KALS-1;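 further: growth inhibition of KALS-1 cells, determined with a cell viability assay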
[21] = tested on: KINGS-1; format: functional, cell-based, Homo sapiens; settings: Homo sapiens, KINGS-1;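 further: cell viability assay measuring suppression of KINGS-1 cell growth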
Description: SANGER: Inhibition of human KINGS-1 cell growth in a cell viability assay.

[22] = tested on: KS-1; format: functional, cell-based, Homo sapiens; settings: Homo sapiens, KS-1;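 further: growth inhibition of KS-1 cells, read out with a cell viability assay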
Description: SANGER: Inhibition of human KS-1 cell growth in a cell viability assay.

[23] = tested on: KYSE-510; format: functional, cell-based, Homo sapiens; settings: Homo sapiens, KYSE-510;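 further: cell viability readout used to measure how strongly growth of the cell line is suppressed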
Description: SANGER: Inhibition of human KYSE-510 cell growth in a cell viability assay.

[24] = tested on: LB2518-MEL; format: functional, cell-based, Homo sapiens; settings: Homo sapiens, LB2518-MEL;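 further: growth inhibition of human LB2518-MEL cells, measured with a cell viability assay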
Description: SANGER: Inhibition of human LB2518-MEL cell growth in a cell viability assay.

[25] = tested on: LS-411N; format: functional, cell-based, Homo sapiens; settings: Homo sapiens, LS-411N
[26] = tested on: LXF-289 cell line; format: functional, cell-based, Homo sapiens; settings: Homo sapiens, LXF-289
Description: SANGER: Inhibition of human LXF-289 cell growth in a cell viability assay.

[27] = tested on: MLMA; format: functional, cell-based, Homo sapiens; settings: Homo sapiens, MLMA;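 further: growth inhibition of MLMA cells (human), determined through a cell viability readout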
Description: SANGER: Inhibition of human MLMA cell growth in a cell viability assay.

[28] = tested on: MZ7-mel; format: functional, cell-based, Homo sapiens; settings: Homo sapiens, MZ7-mel;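 further: growth inhibition of human MZ7-mel cells, measured by a cell viability assay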
Description: SANGER: Inhibition of human MZ7-mel cell growth in a cell viability assay.

[29] = tested on: Mo; format: functional, cell-based; settings: Homo sapiens
Description: SANGER: Inhibition of human Mo-T cell growth in a cell viability assay.

[30] = tested on: NCI-H1395; format: functional, cell-based, Homo sapiens; settings: Homo sapiens, NCI-H1395;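 further: cell viability assay read-out quantifying reduced proliferation of human NCI-H1395 cells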
Description: SANGER: Inhibition of human NCI-H1395 cell growth in a cell viability assay.

[31] = tested on: NCI-H1623; format: functional, cell-based, Homo sapiens; settings: Homo sapiens, NCI-H1623;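 further: cell viability assay used as the read-out for growth inhibition of NCI-H1623 cells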
Description: SANGER: Inhibition of human NCI-H1623 cell growth in a cell viability assay.

[32] = tested on: NCI-H1651; format: functional, cell-based, Homo sapiens; settings: Homo sapiens, NCI-H1651;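 further: Read-out is a cell viability assay, with IC50 expressing inhibition of NCI-H1651 cell growth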
Description: SANGER: Inhibition of human NCI-H1651 cell growth in a cell viability assay.

[33] = tested on: NCI-H2126; format: functional, cell-based, Homo sapiens; settings: Homo sapiens, NCI-H2126;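 further: growth inhibition of the cancer cell line, determined with a cell viability readout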
Description: SANGER: Inhibition of human NCI-H2126 cell growth in a cell viability assay.

[34] = tested on: NCI-H661; format: functional, cell-based, Homo sapiens; settings: Homo sapiens, NCI-H661;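 further: cell viability assay read-out, IC50 being the concentration that inhibits growth of the cells by half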
Description: SANGER: Inhibition of human NCI-H661 cell growth in a cell viability assay.

[35] = tested on: SNU-5; format: functional, cell-based; settings: Homo sapiens;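 further: cell viability readout used to measure growth inhibition in human NCI-SNU-5 cells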
Description: SANGER: Inhibition of human NCI-SNU-5 cell growth in a cell viability assay.

[36] = tested on: OE19; format: functional, cell-based, Homo sapiens; settings: Homo sapiens, OE19;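 further: growth inhibition of OE19 cells, measured through a cell viability read-out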
Description: SANGER: Inhibition of human OE19 cell growth in a cell viability assay.

[37] = tested on: PC-3; format: functional, cell-based, Homo sapiens; settings: Homo sapiens, PC-3;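 further: cell viability assay measuring growth inhibition of PC-3 cells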
Description: SANGER: Inhibition of human PC-3 cell growth in a cell viability assay.

[38] = tested on: RCM-1; format: functional, cell-based, Homo sapiens; settings: Homo sapiens, RCM-1;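 further: growth inhibition of the RCM-1 line, determined with a cell viability readout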
Description: SANGER: Inhibition of human RCM-1 cell growth in a cell viability assay.

[39] = tested on: SK-MEL3; format: functional, cell-based, Homo sapiens, SK-MEL-3; settings: Homo sapiens, SK-MEL3;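 further: growth inhibition of human SK-MEL-3 cells, read out with a cell viability assay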
Description: SANGER: Inhibition of human SK-MEL-3 cell growth in a cell viability assay.

[40] = tested on: SK-NEP-1; format: functional, cell-based; settings: Homo sapiens;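 further: growth inhibition of human SK-NEP-1 cells, read out by a cell viability assay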
Description: SANGER: Inhibition of human SK-NEP-1 cell growth in a cell viability assay.

[41] = tested on: SW1088; format: functional, cell-based, Homo sapiens; settings: Homo sapiens, SW1088;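 further: growth inhibition of human SW1088 cells, read out by a cell viability assay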
Description: SANGER: Inhibition of human SW1088 cell growth in a cell viability assay.

[42] = tested on: T-24; format: functional, cell-based, Homo sapiens; settings: Homo sapiens, T-24;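 further: growth inhibition of T-24 cells, read out with a cell viability assay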
Description: SANGER: Inhibition of human T-24 cell growth in a cell viability assay.

[43] = tested on: T47D; format: functional, cell-based, Homo sapiens; settings: Homo sapiens, T47D;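 further: growth inhibition of human T47D cells, measured with a cell viability assay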
Description: SANGER: Inhibition of human T47D cell growth in a cell viability assay.

[44] = tested on: A-427; format: functional, cell-based, Homo sapiens; settings: Homo sapiens, A-427;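 further: growth inhibition of human A-427 cells, read out by a cell viability assay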
Description: SANGER: Inhibition of human A427 cell growth in a cell viability assay.

[45] = tested on: AU565; format: functional, cell-based, Homo sapiens; settings: Homo sapiens, AU565;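 further: cell viability assay measuring growth inhibition of human AU565 cells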
Description: SANGER: Inhibition of human AU565 cell growth in a cell viability assay.

[46] = tested on: BB49-HNC; format: functional, cell-based, Homo sapiens; settings: Homo sapiens, BB49-HNC;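 further: cell viability assay read-out, reported as inhibition of BB49-HNC cell growth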
Description: SANGER: Inhibition of human BB49-HNC cell growth in a cell viability assay.

[47] = tested on: BEN; format: functional, cell-based, Homo sapiens; settings: Homo sapiens, BEN;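 further: growth inhibition of the BEN cell line, read out with a cell viability assay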
Description: SANGER: Inhibition of human BEN cell growth in a cell viability assay.

[48] = tested on: BFTC-909; format: functional, cell-based, Homo sapiens; settings: Homo sapiens, BFTC-909
Description: SANGER: Inhibition of human BFTC-909 cell growth in a cell viability assay.

[49] = tested on: BPH-1; format: functional, cell-based, Homo sapiens; settings: Homo sapiens, BPH-1;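 further: cell viability assay measuring growth inhibition of human BPH-1 cells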
Description: SANGER: Inhibition of human BPH-1 cell growth in a cell viability assay.

[50] = tested on: C8166; format: functional, cell-based; settings: Homo sapiens;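 further: growth inhibition of human C8166 cells measured by a cell viability assay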
Description: SANGER: Inhibition of human C8166 cell growth in a cell viability assay.

[51] = tested on: YKG-1; format: functional, cell-based, Homo sapiens; settings: Homo sapiens, YKG-1;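 further: cell growth inhibition, read out with a viability assay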
Description: SANGER: Inhibition of human YKG-1 cell growth in a cell viability assay.

Cc1ccc(Nc2nccc(N(C)c3ccc4c(C)n(C)nc4c3)n2)cc1S(N)(=O)=O [PAZOPANIB]
pIC50 [1]: < 5.10
pIC50 [2]: < 5.10
pIC50 [3]: < 5.10
pIC50 [4]: < 5.10
pIC50 [5]: < 5.10
pIC50 [6]: < 5.10
pIC50 [7]: < 5.10
pIC50 [8]: < 5.10
pIC50 [9]: < 5.10
pIC50 [10]: < 5.10
pIC50 [11]: < 5.10
pIC50 [12]: < 5.10
pIC50 [13]: < 5.10
pIC50 [14]: < 5.10
pIC50 [15]: < 5.10
pIC50 [16]: < 5.10
pIC50 [17]: 5.49
pIC50 [18]: < 5.10
pIC50 [19]: < 5.10
pIC50 [20]: < 5.10
pIC50 [21]: < 5.10
pIC50 [22]: < 5.10
pIC50 [23]: < 5.10
pIC50 [24]: < 5.10
pIC50 [25]: < 5.10
pIC50 [26]: < 5.10
pIC50 [27]: < 5.10
pIC50 [28]: < 5.10
pIC50 [29]: < 5.10
pIC50 [30]: < 5.10
pIC50 [31]: < 5.10
pIC50 [32]: < 5.10
pIC50 [33]: < 5.10
pIC50 [34]: < 5.10
pIC50 [35]: < 5.10
pIC50 [36]: < 5.10
pIC50 [37]: < 5.10
pIC50 [38]: < 5.10
pIC50 [39]: < 5.10
pIC50 [40]: < 5.10
pIC50 [41]: < 5.10
pIC50 [42]: < 5.10
pIC50 [43]: < 5.10
pIC50 [44]: 5.70
pIC50 [45]: < 5.10
pIC50 [46]: < 5.10
pIC50 [47]: < 5.10
pIC50 [48]: < 5.10
pIC50 [49]: < 5.10
pIC50 [50]: < 5.10
pIC50 [51]: < 5.10

CC(=O)O[C@@]12CO[C@@H]1C[C@H](O)[C@@]1(C)C(=O)[C@H](O)C3=C(C)[C@@H](OC(=O)[C@H](O)[C@@H](NC(=O)OC(C)(C)C)c4ccccc4)C[C@@](O)([C@@H](OC(=O)c4ccccc4)[C@H]21)C3(C)C [DOCETAXEL]
pIC50 [1]: < 8.00
pIC50 [2]: 8.16
pIC50 [3]: < 8.00
pIC50 [4]: 9.14
pIC50 [5]: 8.35
pIC50 [6]: < 8.00
pIC50 [7]: 8.20
pIC50 [8]: 9.05
pIC50 [9]: 8.36
pIC50 [10]: < 8.00
pIC50 [11]: < 8.00
pIC50 [12]: 8.39
pIC50 [13]: 8.85
pIC50 [14]: 9.55
pIC50 [15]: < 8.00
pIC50 [16]: 9.30
pIC50 [17]: < 8.00
pIC50 [18]: 8.51
pIC50 [19]: 8.36
pIC50 [20]: 8.74
pIC50 [21]: 8.93
pIC50 [22]: 8.84
pIC50 [23]: 9.08
pIC50 [24]: < 8.00
pIC50 [25]: 8.50
pIC50 [26]: 9.12
pIC50 [27]: 8.45
pIC50 [28]: < 8.00
pIC50 [29]: < 8.00
pIC50 [30]: 8.40
pIC50 [31]: 8.07
pIC50 [32]: 8.27
pIC50 [33]: 8.11
pIC50 [34]: < 8.00
pIC50 [35]: 8.26
pIC50 [36]: 8.25
pIC50 [37]: < 8.00
pIC50 [38]: < 8.00
pIC50 [39]: < 8.00
pIC50 [40]: 8.75
pIC50 [41]: 8.53
pIC50 [42]: < 8.00
pIC50 [43]: 8.37
pIC50 [44]: 8.83
pIC50 [45]: 8.74
pIC50 [46]: 8.67
pIC50 [47]: < 8.00
pIC50 [48]: 8.65
pIC50 [49]: 8.99
pIC50 [50]: < 8.00
pIC50 [51]: 9.15

Nc1ccn([C@@H]2O[C@H](CO)[C@@H](O)[C@@H]2O)c(=O)n1 [CYTARABINE]
pIC50 [1]: 5.98
pIC50 [2]: < 5.70
pIC50 [3]: 6.21
pIC50 [4]: < 5.70
pIC50 [5]: < 5.70
pIC50 [6]: < 5.70
pIC50 [7]: 5.86
pIC50 [8]: < 5.70
pIC50 [9]: 6.10
pIC50 [10]: < 5.70
pIC50 [11]: < 5.70
pIC50 [12]: < 5.70
pIC50 [13]: 6.13
pIC50 [14]: 6.16
pIC50 [15]: < 5.70
pIC50 [16]: 6.94
pIC50 [17]: 5.75
pIC50 [18]: < 5.70
pIC50 [19]: 6.47
pIC50 [20]: < 5.70
pIC50 [21]: < 5.70
pIC50 [22]: < 5.70
pIC50 [23]: 6.51
pIC50 [24]: < 5.70
pIC50 [25]: 6.16
pIC50 [26]: 6.60
pIC50 [27]: 7.26
pIC50 [28]: 6.38
pIC50 [29]: < 5.70
pIC50 [30]: < 5.70
pIC50 [31]: 6.27
pIC50 [32]: < 5.70
pIC50 [33]: < 5.70
pIC50 [34]: 5.76
pIC50 [35]: < 5.70
pIC50 [36]: < 5.70
pIC50 [37]: 5.89
pIC50 [38]: < 5.70
pIC50 [39]: < 5.70
pIC50 [40]: < 5.70
pIC50 [41]: < 5.70
pIC50 [42]: 7.10
pIC50 [43]: < 5.70
pIC50 [44]: 7.46
pIC50 [45]: < 5.70
pIC50 [46]: < 5.70
pIC50 [47]: < 5.70
pIC50 [48]: 6.45
pIC50 [49]: < 5.70
pIC50 [50]: < 5.70
pIC50 [51]: 6.53
